Legend:
VMAT2 [1] = assay: Pretreatment and displacement PET with tetrabenazine using [^18F]FE-DTBZ-d4; assay type: in vivo, cynomolgus monkey; details: tetrabenazine 2 mg/kg
Protocol: In NHP1, one PET measurement was performed after pretreatment with tetrabenazine (2 mg/kg), which was administered 15 min prior to the administration of [^18F]FE-DTBZ-d4. In NHP2, two displacement experiments were performed with the administration of tetrabenazine (2 mg/kg) 25 min after the injection of [^18F]FE-DTBZ-d4.
The regions of interest (ROIs) were delineated manually on the MRI images of each NHP for putamen, caudate, midbrain, occipital cortex, and cerebellum. The MRI of all of the individual NHPs was coregistered to summed PET images of the whole PET measurement. The time–activity curves of NHP brain regions were generated from dynamic PET data with the application of the coregistration parameters to ROIs. Quantification was performed using the Logan graphical analysis, and the cerebellum was used as a reference region. The outcome measure was the binding potential (BPND).

VMAT2 [2] = assay: PET quantification of VMAT2 binding (BPND, Logan noninvasive analysis, cerebellum reference); assay type: in vivo, cynomolgus monkey; details: for Binding potential (BPND) caudate / Binding potential (BPND) midbrain / Binding potential (BPND) putamen: Logan noninvasive analysis, cerebellum as reference region; for peak equilibrium: cynomolgus monkey brain, baseline PET
Text: The outcome measure was the binding potential (BPND).

[3] = Radiometabolite analysis in monkey plasma by gradient radio-HPLC; assay type: in vivo, cynomolgus monkey; details: 90 min after injection
Protocol: Radiometabolite analysis was performed following a method reported elsewhere.[34] Venous blood samples (2 mL) were obtained from the monkey at different time points such as 2.5, 15, 30, 45, 60, 90, 120, 150, and 180 min after injection of [^18F]FE-DTBZ/[^18F]FE-DTBZ-d4. For [^11C]-DTBZ, venous blood samples (2 mL) were obtained at time points 2.5, 15, 30, 45, 60, and 90 min after injection. Collected blood was centrifuged at 2000g for 2 min to obtain the plasma (0.5 mL). The plasma was mixed with 1.4 times volume of acetonitrile followed by centrifugation at 2000g for 4 min. The extract was separated from the pellet and was diluted with water before injecting into the HPLC equipped with a reverse-phase μ-Bondapak HPLC column, (300 mm × 10 mm I.D). […] Peaks for radioactive compounds eluting from the column were integrated and their areas were expressed as a percentage of the sum of the areas of all detected radioactive compounds (decay-corrected to the time of injection on the HPLC). To calculate the recovery of radioactivity from the system, an aliquot (2 mL) of the eluate from the HPLC column was measured and divided by the amount of the total injected radioanalyte.

[4] = Plasma protein binding by ultrafiltration; assay type: in vitro ADME; details: cynomolgus, cynomolgus monkey, pH 7.4, NHP plasma, baseline, read-out: plasma free fraction (fP)
Protocol: Plasma protein binding of all three radioligands was measured in duplicate in baseline conditions. NHP blood plasma (500 μL) and a PBS solution (pH 7.4, KCl 0.2 mg, KH2PO4 0.2 mg, Na2HPO4 1.42 mg, NaCl 8 mg in 1 mL) were mixed with the respective radioligand (50 μL, approx. 20 MBq in PBS). The plasma mixture was incubated for 10 min at room temperature and a small portion (20 μL) from each incubation mixture was measured in a well counter. A portion (200 μL) from all individual incubation mixtures was pipetted out into ultrafiltration tubes (Millipore Centrifree YM-30) and centrifuged at 3000 rpm for 15 min. Samples (20 μL) from each filtrate were counted in a well counter. The following formula was used to calculate the protein-bound fraction. [drawing 1] where Cpla (total) is the radioactivity concentration of the incubation mixture in plasma, CPBS (total) is the radioactivity concentration of the incubation mixture in PBS, and Cpla (filtrate) and […] the radioactivity concentrations from filtrate samples.

[5] = cited from earlier work
[6] = PET whole brain uptake and kinetics in cynomolgus monkeys (HRRT); details: whole brain peak, baseline PET
Protocol: Anesthesia was induced by intramuscular injection of ketamine hydrochloride (approximately 10 mg/kg, Ketaminol vet. Intervet) and maintained by the administration of a mixture of sevoflurane, oxygen, and medical air after endotracheal intubation. The head was immobilized using a fixation device.[32]
Three female cynomolgus monkeys (NHP1, NHP2, and NHP3) (weight of 5.8–6.95 kg) were studied in 10 different experimental days for a total of 12 PET experiments. All PET experiments were performed using a high-resolution research tomograph (HRRT) PET scanner (Siemens Molecular Imaging, Knoxville, TN). A 6 min transmission scan was performed every time before the injection of the radioligands using a single ^137Cs source. […]
All three monkeys underwent two PET measurements on the same day at once. […] Venous blood sampling was performed manually for the measurement of protein binding, blood, and plasma radioactivity and radiometabolite analysis. […]
The regions of interest (ROIs) were delineated manually on the MRI images of each NHP for putamen, caudate, midbrain, occipital cortex, and cerebellum. […] Quantification was performed using the Logan graphical analysis, and the cerebellum was used as a reference region. […]

VMAT2 [7] = details: rats; cited from earlier work
VMAT2 [8] = details: cited from earlier work

SMILES	uptake of [^18F]FE-DTBZ-d4 in caudate, putamen, and midbrain after pretreatment (VMAT2 [1]; 15 min prior to radioligand injection)	uptake of [^18F]FE-DTBZ-d4 in caudate, putamen, and midbrain in displacement experiment (VMAT2 [1]; 25 min after radioligand injection)	Binding potential (BPND) caudate (VMAT2 [2])	peak equilibrium (VMAT2 [2]) [min]	Binding potential (BPND) midbrain (VMAT2 [2])	Binding potential (BPND) putamen (VMAT2 [2])	percent of unchanged radioligand in plasma [3] [%]	fraction unbound at 10 min, 36 MBq/mL [4]	bone uptake ([5]; PET/CT in pigs, compared with [^18F]FE-(+)-DTBZ)	brain uptake (SUV) [6]	striatum-to-cerebellum ratio (VMAT2 [7])	in vivo metabolism ([5]; large piglet model)	better binding affinity over the (−)-enantiomer (VMAT2 [8]) [fold]
COc1cc2c(cc1OC)C1CC(=O)C(CC(C)C)CN1CC2 (centres unmarked) [tetrabenazine]	decreased almost to the level of the cerebellum and occipital cortex	clear reduction											
[2H]C([2H])([18F])C([2H])([2H])Oc1cc2c(cc1OC)[C@H]1C[C@@H](O)[C@H](CC(C)C)CN1CC2 [[^18F]FE-DTBZ-d4]			4.4 ± 1.1	40	1.4 ± 0.4	5.5 ± 1.4	30 ± 17	0.52 ± 0.01	lower bone uptake	4.28 ± 1.01			
COc1cc2c(cc1OCC[18F])CCN1C[C@@H](CC(C)C)[C@H](O)C[C@H]21 [[^18F]FE-DTBZ, ^18F-fluoroethyl-(+)-dihydrotetrabenazine]			3.8 ± 0.5	> 60	1.1 ± 0.1	4.7 ± 0.3	10 ± 4	0.56		3.43 ± 0.54	relatively poor	metabolized extensively by in vivo defluorination	
COc1cc2c(cc1OC)[C@H]1C[C@@H](O)[C@H](CC(C)C)CN1CC2 (single isomer, unassigned) [(+)-enantiomer, dihydrotetrabenazine]													1000

Source: publication PMC8678981, “PET Imaging of VMAT2 with the Novel Radioligand [^18F]FE-DTBZ-d4 in Nonhuman Primates: Comparison with [^11C]DTBZ and [^18F]FE-DTBZ” (ACS Chemical Neuroscience, 2021)
